Legend:
Format in all cases: in vivo
Crabgrass [1] = assay: pre-emergent herbicidal test; conditions: T, 4 WAT
Procedure: (§1) The pre-emergent test was conducted as follows:
(§2) A good grade of top soil was placed in aluminum pans and compactd to a depth of 0.95 to 1.27 cm. from the top of the pan. On the top of the soil was placed a predetermined number of seeds or vegetative propagules of various plant species. The soil required to level fill the pans after seeding or adding vegetative propagules was weighed into a pan. A known amount of the herbicidal active ingredient applied in a solvent or as a wettable powder and the soil were thoroughly mixed, and used as a cover layer for prepared pans. After treatment the pans were moved into a greenhouse bench where they were watered from below as needed to give adequate moisture for germination and growth.
(§3) A herbicidal rating code was used to signify the extent of phytotoxicity of each species. The ratings are defined as follows: […]

Hemp Sesbania [2] = assay: pre-emergent herbicidal test; conditions: R, 4 WAT
Procedure: as §1, §2, §3

Panicum Spp [3] = assay: pre-emergent herbicidal test; conditions: S, 4 WAT
Procedure: as §1, §2, §3

Rice [4] = assay: pre-emergent herbicidal test; conditions: O, 4 WAT
Procedure: as §1, §2, §3

Sorghum [5] = assay: pre-emergent herbicidal test; conditions: P, 4 WAT
Procedure: as §1, §2, §3

Soybean [6] = assay: pre-emergent herbicidal test; conditions: L, 4 WAT
Procedure: as §1, §2, §3

Sugar Beet [7] = assay: pre-emergent herbicidal test; conditions: M, 4 WAT
Procedure: as §1, §2, §3

Wheat [8] = assay: pre-emergent herbicidal test; conditions: N, 4 WAT
Procedure: as §1, §2, §3

Wild Buckwheat [9] = assay: pre-emergent herbicidal test; conditions: Q, 4 WAT
Procedure: as §1, §2, §3

Crabgrass [10] = assay: post-emergent herbicidal test; conditions: T, 4 WAT
Procedure: (§4) The post-emergent tests were conducted as follows:
(§5) The herbicidal active ingredients are applied in spray form to two or three-week old specimens of various plant species. The spray, a solution or wettable powder suspension containing the appropriate rate of herbicidal active ingredient to give the desired test rate and a surfactant, is applied to the plants. The treated plants are placed in a greenhouse and approximately two or four weeks later the effects are observed and recorded. The results are shown in Tables IX and X in which the post-emergent herbicidal rating code is as follows: […]

Hemp Sesbania [11] = assay: post-emergent herbicidal test; conditions: R, 4 WAT
Procedure: as §4, §5

Panicum Spp [12] = assay: post-emergent herbicidal test; conditions: S, 4 WAT
Procedure: as §4, §5

Rice [13] = assay: post-emergent herbicidal test; conditions: O, 4 WAT
Procedure: as §4, §5

Sorghum [14] = assay: post-emergent herbicidal test; conditions: P, 4 WAT
Procedure: as §4, §5

Soybean [15] = assay: post-emergent herbicidal test; conditions: L, 4 WAT
Procedure: as §4, §5

Sugar Beet [16] = assay: post-emergent herbicidal test; conditions: M, 4 WAT
Procedure: as §4, §5

Wheat [17] = assay: post-emergent herbicidal test; conditions: N, 4 WAT
Procedure: as §4, §5

Wild Buckwheat [18] = assay: post-emergent herbicidal test; conditions: Q, 4 WAT
Procedure: as §4, §5
Also: ranges in brackets are in %.

In the case of `COC(=N)Cn1c(=O)sc2ccccc21` [Compound 11], the pre-emergent herbicidal rating (Crabgrass [1]; 1.12 kg/h) is reported as 0 (0-24), the pre-emergent herbicidal rating (Crabgrass [1]; 5.6 kg/h) is reported as 1 (25-49) and the pre-emergent herbicidal rating (Hemp Sesbania [2]; 1.12 kg/h) is reported as 1 (25-49). The pre-emergent herbicidal rating (Hemp Sesbania [2]; 5.6 kg/h) was 3 (75-100), the pre-emergent herbicidal rating (Panicum Spp [3]; 1.12 kg/h) was 0 (0-24) and the pre-emergent herbicidal rating (Panicum Spp [3]; 5.6 kg/h) was 2 (50-74). The pre-emergent herbicidal rating (Rice [4]; 1.12 kg/h) was 0 (0-24), the pre-emergent herbicidal rating (Rice [4]; 5.6 kg/h) was 0 (0-24) and the pre-emergent herbicidal rating (Sorghum [5]; 1.12 kg/h) was 0 (0-24). The pre-emergent herbicidal rating (Sorghum [5]; 5.6 kg/h) was 0 (0-24), the pre-emergent herbicidal rating (Soybean [6]; 1.12 kg/h) was 2 (50-74) and the pre-emergent herbicidal rating (Soybean [6]; 5.6 kg/h) was 3 (75-100). The pre-emergent herbicidal rating (Sugar Beet [7]; 1.12 kg/h) was 1 (25-49), the pre-emergent herbicidal rating (Sugar Beet [7]; 5.6 kg/h) was 2 (50-74) and the pre-emergent herbicidal rating (Wheat [8]; 1.12 kg/h) was 1 (25-49). For the same molecule, the pre-emergent herbicidal rating (Wheat [8]; 5.6 kg/h) was 1 (25-49), the pre-emergent herbicidal rating (Wild Buckwheat [9]; 1.12 kg/h) was 1 (25-49) and the pre-emergent herbicidal rating (Wild Buckwheat [9]; 5.6 kg/h) was 3 (75-100). For the same molecule, the post-emergent herbicidal rating (Crabgrass [10]; 1.12 kg/h) was 0 (0-24), the post-emergent herbicidal rating (Crabgrass [10]; 5.6 kg/h) was 0 (0-24) and the post-emergent herbicidal rating (Hemp Sesbania [11]; 1.12 kg/h) was 1 (25-49). For the same molecule, the post-emergent herbicidal rating (Hemp Sesbania [11]; 5.6 kg/h) was 3 (75-99), the post-emergent herbicidal rating (Panicum Spp [12]; 1.12 kg/h) was 0 (0-24) and the post-emergent herbicidal rating (Panicum Spp [12]; 5.6 kg/h) was 1 (25-49). For the same molecule, the post-emergent herbicidal rating (Rice [13]; 1.12 kg/h) was 0 (0-24), the post-emergent herbicidal rating (Rice [13]; 5.6 kg/h) was 0 (0-24) and the post-emergent herbicidal rating (Sorghum [14]; 1.12 kg/h) was 0 (0-24). For the same molecule, the post-emergent herbicidal rating (Sorghum [14]; 5.6 kg/h) was 1 (25-49), the post-emergent herbicidal rating (Soybean [15]; 1.12 kg/h) was 1 (25-49) and the post-emergent herbicidal rating (Soybean [15]; 5.6 kg/h) was 3 (75-99). The post-emergent herbicidal rating (Sugar Beet [16]; 1.12 kg/h) was 2 (50-74), the post-emergent herbicidal rating (Sugar Beet [16]; 5.6 kg/h) was 4 (100) and the post-emergent herbicidal rating (Wheat [17]; 1.12 kg/h) was 1 (25-49). The post-emergent herbicidal rating (Wheat [17]; 5.6 kg/h) was 1 (25-49), the post-emergent herbicidal rating (Wild Buckwheat [18]; 1.12 kg/h) was 2 (50-74) and the post-emergent herbicidal rating (Wild Buckwheat [18]; 5.6 kg/h) was 4 (100).

For `CCOC(=N)Cn1c(=O)sc2ccccc21` [Compound 12], the pre-emergent herbicidal rating (Crabgrass [1]; 1.12 kg/h) was 0 (0-24), the pre-emergent herbicidal rating (Crabgrass [1]; 5.6 kg/h) was 0 (0-24) and the pre-emergent herbicidal rating (Hemp Sesbania [2]; 1.12 kg/h) was 1 (25-49). The pre-emergent herbicidal rating (Hemp Sesbania [2]; 5.6 kg/h) was 2 (50-74), the pre-emergent herbicidal rating (Panicum Spp [3]; 1.12 kg/h) was 0 (0-24) and the pre-emergent herbicidal rating (Panicum Spp [3]; 5.6 kg/h) was 0 (0-24). For the same molecule, the pre-emergent herbicidal rating (Rice [4]; 1.12 kg/h) was 0 (0-24), the pre-emergent herbicidal rating (Rice [4]; 5.6 kg/h) was 0 (0-24) and the pre-emergent herbicidal rating (Sorghum [5]; 1.12 kg/h) was 0 (0-24). The pre-emergent herbicidal rating (Sorghum [5]; 5.6 kg/h) was 0 (0-24), the pre-emergent herbicidal rating (Soybean [6]; 1.12 kg/h) was 1 (25-49) and the pre-emergent herbicidal rating (Soybean [6]; 5.6 kg/h) was 2 (50-74). The pre-emergent herbicidal rating (Sugar Beet [7]; 1.12 kg/h) was 3 (75-100), the pre-emergent herbicidal rating (Sugar Beet [7]; 5.6 kg/h) was 3 (75-100) and the pre-emergent herbicidal rating (Wheat [8]; 1.12 kg/h) was 0 (0-24). The pre-emergent herbicidal rating (Wheat [8]; 5.6 kg/h) was 1 (25-49), the pre-emergent herbicidal rating (Wild Buckwheat [9]; 1.12 kg/h) was 1 (25-49) and the pre-emergent herbicidal rating (Wild Buckwheat [9]; 5.6 kg/h) was 1 (25-49). For the same molecule, the post-emergent herbicidal rating (Crabgrass [10]; 0.28 kg/h) was 0 (0-24), the post-emergent herbicidal rating (Crabgrass [10]; 1.12 kg/h) was 0 (0-24) and the post-emergent herbicidal rating (Crabgrass [10]; 5.6 kg/h) was 0 (0-24). The post-emergent herbicidal rating (Hemp Sesbania [11]; 0.28 kg/h) was 1 (25-49), the post-emergent herbicidal rating (Hemp Sesbania [11]; 1.12 kg/h) was 2 (50-74) and the post-emergent herbicidal rating (Hemp Sesbania [11]; 5.6 kg/h) was 3 (75-99). The post-emergent herbicidal rating (Panicum Spp [12]; 0.28 kg/h) was 0 (0-24), the post-emergent herbicidal rating (Panicum Spp [12]; 1.12 kg/h) was 0 (0-24) and the post-emergent herbicidal rating (Panicum Spp [12]; 5.6 kg/h) was 0 (0-24). The post-emergent herbicidal rating (Rice [13]; 0.28 kg/h) was 0 (0-24), the post-emergent herbicidal rating (Rice [13]; 1.12 kg/h) was 0 (0-24) and the post-emergent herbicidal rating (Rice [13]; 5.6 kg/h) was 0 (0-24). For the same molecule, the post-emergent herbicidal rating (Sorghum [14]; 0.28 kg/h) was 0 (0-24), the post-emergent herbicidal rating (Sorghum [14]; 1.12 kg/h) was 0 (0-24) and the post-emergent herbicidal rating (Sorghum [14]; 5.6 kg/h) was 0 (0-24). The post-emergent herbicidal rating (Soybean [15]; 0.28 kg/h) was 1 (25-49), the post-emergent herbicidal rating (Soybean [15]; 1.12 kg/h) was 1 (25-49) and the post-emergent herbicidal rating (Soybean [15]; 5.6 kg/h) was 2 (50-74). For the same molecule, the post-emergent herbicidal rating (Sugar Beet [16]; 0.28 kg/h) was 1 (25-49), the post-emergent herbicidal rating (Sugar Beet [16]; 1.12 kg/h) was 2 (50-74) and the post-emergent herbicidal rating (Sugar Beet [16]; 5.6 kg/h) was 3 (75-99). For the same molecule, the post-emergent herbicidal rating (Wheat [17]; 0.28 kg/h) was 0 (0-24), the post-emergent herbicidal rating (Wheat [17]; 1.12 kg/h) was 0 (0-24) and the post-emergent herbicidal rating (Wheat [17]; 5.6 kg/h) was 1 (25-49). The post-emergent herbicidal rating (Wild Buckwheat [18]; 0.28 kg/h) was 1 (25-49), the post-emergent herbicidal rating (Wild Buckwheat [18]; 1.12 kg/h) was 2 (50-74) and the post-emergent herbicidal rating (Wild Buckwheat [18]; 5.6 kg/h) was 3 (75-99).
